{
  "source": "ChEMBL document CHEMBL1201862",
  "about": "“PubChem BioAssay data set” (2004)",
  "key": {"Tumor necrosis factor": {"molecular_target": "Tumor necrosis factor (Homo sapiens, UniProt P01375)", "sequence (P01375 whole entry)": "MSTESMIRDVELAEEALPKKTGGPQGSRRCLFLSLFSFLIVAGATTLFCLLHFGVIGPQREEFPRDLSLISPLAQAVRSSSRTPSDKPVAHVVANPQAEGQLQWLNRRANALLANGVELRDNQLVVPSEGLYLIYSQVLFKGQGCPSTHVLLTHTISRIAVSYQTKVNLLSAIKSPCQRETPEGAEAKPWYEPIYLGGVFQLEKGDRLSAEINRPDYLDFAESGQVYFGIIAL", "assay": "TNFa-triggered NF-kB activation inhibitors, SAR follow-up, cell-based, revised (AID 2337)", "type": "functional"}, "[1]": {"assay": "Luminescence Cell-Based Dose Retest to Confirm Inhibitors of Cancer Stem Cells. [Related pubchem assays (depositor defined):AID2717, AID2721]", "type": "functional", "details": "Homo sapiens"}, "[2]": {"molecular_target": "T1, Nucleotide-binding oligomerization domain-containing protein 1 (Homo sapiens, UniProt Q9Y239)", "T1 sequence (Q9Y239 whole entry)": "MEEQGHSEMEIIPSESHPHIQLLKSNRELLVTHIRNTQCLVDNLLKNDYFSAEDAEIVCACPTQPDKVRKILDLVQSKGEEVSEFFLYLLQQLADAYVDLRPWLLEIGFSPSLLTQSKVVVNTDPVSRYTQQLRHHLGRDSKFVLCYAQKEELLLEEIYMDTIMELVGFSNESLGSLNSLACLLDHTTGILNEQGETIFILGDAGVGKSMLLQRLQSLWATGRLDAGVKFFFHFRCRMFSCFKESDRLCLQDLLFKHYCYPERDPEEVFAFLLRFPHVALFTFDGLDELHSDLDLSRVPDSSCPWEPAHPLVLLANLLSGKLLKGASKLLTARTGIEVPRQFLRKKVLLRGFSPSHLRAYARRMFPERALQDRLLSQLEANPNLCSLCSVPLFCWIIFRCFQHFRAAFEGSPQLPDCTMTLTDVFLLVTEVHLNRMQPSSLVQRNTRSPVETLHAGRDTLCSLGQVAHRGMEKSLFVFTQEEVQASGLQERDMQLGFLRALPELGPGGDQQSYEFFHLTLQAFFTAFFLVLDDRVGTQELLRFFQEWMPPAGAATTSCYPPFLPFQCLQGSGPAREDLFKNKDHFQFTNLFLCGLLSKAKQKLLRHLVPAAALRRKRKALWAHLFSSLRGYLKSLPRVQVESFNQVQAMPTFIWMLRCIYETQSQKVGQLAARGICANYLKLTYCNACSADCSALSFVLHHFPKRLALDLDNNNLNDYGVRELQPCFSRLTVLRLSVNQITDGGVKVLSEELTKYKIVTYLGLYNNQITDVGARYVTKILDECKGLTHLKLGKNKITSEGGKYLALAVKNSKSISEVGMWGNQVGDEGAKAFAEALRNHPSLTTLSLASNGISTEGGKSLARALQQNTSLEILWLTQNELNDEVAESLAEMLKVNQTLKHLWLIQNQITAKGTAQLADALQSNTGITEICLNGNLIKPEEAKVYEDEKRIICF", "assay": "NOD1 signaling inhibitors, SAR follow-up, revised (AID 2333)", "type": "functional"}, "[3]": {"molecular_target": "Nucleotide-binding oligomerization domain-containing protein 2 (Homo sapiens, UniProt Q9HC29)", "assay": "PubChem AID 2334", "type": "functional"}, "HEK293": {"tested_on": "HEK293", "assay": "cells", "details": "Homo sapiens"}, "[4]": {"molecular_target": "Lysine-specific demethylase 4C (Homo sapiens, UniProt Q9H3R0)", "sequence (Q9H3R0 whole entry)": "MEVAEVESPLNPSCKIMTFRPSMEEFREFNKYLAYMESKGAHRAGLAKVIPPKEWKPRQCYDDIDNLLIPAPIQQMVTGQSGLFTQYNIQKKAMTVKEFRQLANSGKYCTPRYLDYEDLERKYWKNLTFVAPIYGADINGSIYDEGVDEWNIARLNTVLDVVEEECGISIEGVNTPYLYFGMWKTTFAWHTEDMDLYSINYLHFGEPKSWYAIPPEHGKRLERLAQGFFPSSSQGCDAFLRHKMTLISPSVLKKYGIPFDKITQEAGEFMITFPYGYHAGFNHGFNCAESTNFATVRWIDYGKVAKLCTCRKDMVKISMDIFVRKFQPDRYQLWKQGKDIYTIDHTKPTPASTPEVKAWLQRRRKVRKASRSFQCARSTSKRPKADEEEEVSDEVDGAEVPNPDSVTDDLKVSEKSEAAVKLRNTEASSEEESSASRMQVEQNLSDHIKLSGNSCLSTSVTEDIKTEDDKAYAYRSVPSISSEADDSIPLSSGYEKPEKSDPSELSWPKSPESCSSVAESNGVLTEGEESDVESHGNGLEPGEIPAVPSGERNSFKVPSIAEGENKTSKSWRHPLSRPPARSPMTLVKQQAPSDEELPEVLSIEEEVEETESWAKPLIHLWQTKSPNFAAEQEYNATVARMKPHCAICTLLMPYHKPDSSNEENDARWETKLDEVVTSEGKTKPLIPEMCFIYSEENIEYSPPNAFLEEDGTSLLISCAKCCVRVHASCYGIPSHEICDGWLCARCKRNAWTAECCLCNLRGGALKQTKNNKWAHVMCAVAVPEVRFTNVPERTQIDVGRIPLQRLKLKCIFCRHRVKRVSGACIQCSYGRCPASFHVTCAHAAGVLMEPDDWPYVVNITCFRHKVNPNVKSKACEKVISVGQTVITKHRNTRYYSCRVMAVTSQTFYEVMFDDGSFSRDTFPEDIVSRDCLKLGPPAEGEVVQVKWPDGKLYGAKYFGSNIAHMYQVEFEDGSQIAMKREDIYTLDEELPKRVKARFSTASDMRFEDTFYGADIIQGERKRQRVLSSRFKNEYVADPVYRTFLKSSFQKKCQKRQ", "assay": "GASC-1 (JMJD2C) histone demethylase inhibitors, dose response, biochemical, DELFIA europium, cherry-picked samples (AID 488835)", "type": "functional"}, "[5]": {"molecular_target": "T2, Dual specificity protein phosphatase 3 (Homo sapiens, UniProt P51452)", "T2 sequence (P51452 whole entry)": "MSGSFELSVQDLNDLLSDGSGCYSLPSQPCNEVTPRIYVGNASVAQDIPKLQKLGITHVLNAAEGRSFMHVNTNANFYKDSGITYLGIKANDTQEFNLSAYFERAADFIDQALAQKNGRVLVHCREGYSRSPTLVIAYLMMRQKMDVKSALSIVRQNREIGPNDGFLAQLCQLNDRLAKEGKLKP", "assay": "VHR1 phosphatase inhibitors, primary screen, biochemical, absorbance, uHTS (AID 1654)"}, "[6]": {"molecular_target": "T3, Voltage-gated N-type calcium channel alpha-1B subunit/Amyloid beta A4 precursor protein-binding family A member 1 (Homo sapiens, UniProt Q00975+Q02410)", "T3 sequence (Q00975 whole entry)": "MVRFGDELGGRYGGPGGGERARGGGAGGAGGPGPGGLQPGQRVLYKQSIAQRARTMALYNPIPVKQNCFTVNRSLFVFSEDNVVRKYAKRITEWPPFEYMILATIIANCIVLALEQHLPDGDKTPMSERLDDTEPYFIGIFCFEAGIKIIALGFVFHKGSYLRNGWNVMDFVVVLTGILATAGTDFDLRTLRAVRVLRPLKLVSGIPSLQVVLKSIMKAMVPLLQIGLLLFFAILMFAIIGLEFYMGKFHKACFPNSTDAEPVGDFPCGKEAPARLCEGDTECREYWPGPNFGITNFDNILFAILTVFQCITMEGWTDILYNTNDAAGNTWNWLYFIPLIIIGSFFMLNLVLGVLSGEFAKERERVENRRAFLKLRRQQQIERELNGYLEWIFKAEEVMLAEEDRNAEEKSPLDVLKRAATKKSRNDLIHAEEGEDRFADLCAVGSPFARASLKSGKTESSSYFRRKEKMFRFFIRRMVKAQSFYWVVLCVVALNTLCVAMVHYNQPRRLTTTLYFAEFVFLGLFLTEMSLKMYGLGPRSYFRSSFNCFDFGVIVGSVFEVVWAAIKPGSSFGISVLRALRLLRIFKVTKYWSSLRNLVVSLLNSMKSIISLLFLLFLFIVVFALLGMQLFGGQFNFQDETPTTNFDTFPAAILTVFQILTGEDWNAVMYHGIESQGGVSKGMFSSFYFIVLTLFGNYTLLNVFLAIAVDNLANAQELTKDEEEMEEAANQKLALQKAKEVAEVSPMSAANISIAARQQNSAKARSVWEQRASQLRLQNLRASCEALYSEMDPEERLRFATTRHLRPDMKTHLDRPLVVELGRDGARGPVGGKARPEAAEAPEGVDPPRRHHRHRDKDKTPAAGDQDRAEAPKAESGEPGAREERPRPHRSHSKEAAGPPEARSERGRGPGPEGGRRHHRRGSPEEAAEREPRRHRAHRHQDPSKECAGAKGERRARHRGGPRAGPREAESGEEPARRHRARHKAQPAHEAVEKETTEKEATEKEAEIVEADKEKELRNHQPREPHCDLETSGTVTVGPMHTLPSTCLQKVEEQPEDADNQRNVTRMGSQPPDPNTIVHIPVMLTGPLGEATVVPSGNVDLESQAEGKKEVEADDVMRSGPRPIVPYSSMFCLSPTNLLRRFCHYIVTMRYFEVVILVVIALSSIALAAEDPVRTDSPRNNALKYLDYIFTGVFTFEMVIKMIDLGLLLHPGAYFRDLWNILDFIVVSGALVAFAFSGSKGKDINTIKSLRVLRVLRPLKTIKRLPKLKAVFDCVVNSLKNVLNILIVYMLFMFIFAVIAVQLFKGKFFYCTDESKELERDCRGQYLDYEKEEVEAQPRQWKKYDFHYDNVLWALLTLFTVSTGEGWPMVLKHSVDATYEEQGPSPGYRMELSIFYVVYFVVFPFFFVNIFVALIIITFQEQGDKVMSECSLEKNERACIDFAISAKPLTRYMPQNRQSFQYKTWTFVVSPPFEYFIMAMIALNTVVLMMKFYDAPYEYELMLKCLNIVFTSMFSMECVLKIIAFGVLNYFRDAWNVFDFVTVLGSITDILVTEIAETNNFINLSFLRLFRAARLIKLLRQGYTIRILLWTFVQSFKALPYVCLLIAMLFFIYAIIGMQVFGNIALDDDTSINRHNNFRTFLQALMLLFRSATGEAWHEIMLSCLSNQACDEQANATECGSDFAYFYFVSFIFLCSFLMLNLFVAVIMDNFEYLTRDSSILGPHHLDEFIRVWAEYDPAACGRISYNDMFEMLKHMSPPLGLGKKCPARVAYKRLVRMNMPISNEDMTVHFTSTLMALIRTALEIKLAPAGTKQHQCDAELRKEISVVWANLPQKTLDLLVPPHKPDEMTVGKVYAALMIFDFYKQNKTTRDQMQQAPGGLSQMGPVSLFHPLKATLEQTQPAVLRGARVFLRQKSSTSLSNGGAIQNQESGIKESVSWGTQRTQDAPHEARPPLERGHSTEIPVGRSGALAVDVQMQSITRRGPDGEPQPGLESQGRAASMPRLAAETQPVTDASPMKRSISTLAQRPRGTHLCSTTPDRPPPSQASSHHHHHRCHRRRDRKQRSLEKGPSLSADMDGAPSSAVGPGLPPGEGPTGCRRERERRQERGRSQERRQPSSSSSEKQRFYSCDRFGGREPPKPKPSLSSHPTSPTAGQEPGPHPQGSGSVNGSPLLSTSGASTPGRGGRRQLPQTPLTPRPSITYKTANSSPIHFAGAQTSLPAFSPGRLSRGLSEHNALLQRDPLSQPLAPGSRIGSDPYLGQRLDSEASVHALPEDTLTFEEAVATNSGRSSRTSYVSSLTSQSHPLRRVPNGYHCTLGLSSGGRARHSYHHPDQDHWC", "T3 sequence (Q02410 whole entry)": "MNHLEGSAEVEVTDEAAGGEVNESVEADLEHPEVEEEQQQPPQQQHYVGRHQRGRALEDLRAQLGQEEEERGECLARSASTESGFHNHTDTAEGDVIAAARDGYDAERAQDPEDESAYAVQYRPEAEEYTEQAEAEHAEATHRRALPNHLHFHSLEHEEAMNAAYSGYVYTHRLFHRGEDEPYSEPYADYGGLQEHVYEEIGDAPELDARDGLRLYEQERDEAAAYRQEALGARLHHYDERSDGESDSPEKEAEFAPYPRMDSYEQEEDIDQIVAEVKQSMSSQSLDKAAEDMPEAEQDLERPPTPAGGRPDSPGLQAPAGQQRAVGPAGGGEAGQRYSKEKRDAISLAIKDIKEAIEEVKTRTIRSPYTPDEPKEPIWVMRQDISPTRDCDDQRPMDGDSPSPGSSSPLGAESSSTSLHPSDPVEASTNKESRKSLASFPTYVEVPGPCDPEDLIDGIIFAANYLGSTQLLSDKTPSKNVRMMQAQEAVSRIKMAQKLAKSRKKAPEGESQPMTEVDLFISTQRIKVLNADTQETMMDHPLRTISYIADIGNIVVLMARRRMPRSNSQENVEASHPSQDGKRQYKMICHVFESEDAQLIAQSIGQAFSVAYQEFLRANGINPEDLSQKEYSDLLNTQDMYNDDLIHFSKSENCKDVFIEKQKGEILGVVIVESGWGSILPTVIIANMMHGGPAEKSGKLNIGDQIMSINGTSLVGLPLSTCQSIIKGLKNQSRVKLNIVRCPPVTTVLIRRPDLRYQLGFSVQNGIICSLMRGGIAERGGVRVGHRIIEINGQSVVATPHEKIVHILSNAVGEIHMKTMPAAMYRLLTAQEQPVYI", "type": "protein assay"}, "[7]": {"molecular_target": "T3, Voltage-gated N-type calcium channel alpha-1B subunit/Amyloid beta A4 precursor protein-binding family A member 1", "type": "protein assay", "remark": "listed apart in the source"}, "[8]": {"molecular_target": "T2, Dual specificity protein phosphatase 3", "assay": "VHR1 phosphatase inhibitors, biochemical (AID 1878)"}, "[9]": {"molecular_target": "T4, Dual specificity protein phosphatase 6 (Rattus norvegicus, UniProt Q64346)", "T4 sequence (Q64346 whole entry)": "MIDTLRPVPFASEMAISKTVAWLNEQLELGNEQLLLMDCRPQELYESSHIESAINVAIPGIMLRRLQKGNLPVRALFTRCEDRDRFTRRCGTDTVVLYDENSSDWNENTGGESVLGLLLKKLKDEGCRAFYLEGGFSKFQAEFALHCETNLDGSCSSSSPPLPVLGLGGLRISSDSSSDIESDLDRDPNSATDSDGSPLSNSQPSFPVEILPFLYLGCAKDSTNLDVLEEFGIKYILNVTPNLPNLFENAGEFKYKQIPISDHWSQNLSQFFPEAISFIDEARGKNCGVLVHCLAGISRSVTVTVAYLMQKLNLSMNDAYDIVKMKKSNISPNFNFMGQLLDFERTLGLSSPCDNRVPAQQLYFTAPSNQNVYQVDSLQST", "assay": "MKP-3 phosphatase inhibitors, primary screen, biochemical, rat enzyme, in vitro (AID 425)"}, "Albumin": {"molecular_target": "Albumin (Bos taurus, UniProt P02769)", "assay": "Counterscreen for inhibitors of T-cell receptor (TCR)-CD3 interaction: Fluorescence-based biochemical high throughput dose response assay to identify inhibitors of T-cell receptor (TCR)-CD3 interaction using a TAMRA-labeled BSA probe.", "type": "functional"}},
  "note": "Calls of active or inactive are those of the source.",
  "data": [
    {"smiles": "COC(=O)c1c(NC(=O)c2ccccc2)sc2c1CC(C)(C)OC2", "values": [
      {"measurement": "IC50", "setting": "Tumor necrosis factor", "value": "> 20 µM (inactive)"},
      {"measurement": "AC50", "setting": "[1]", "value": "9.23 µM (active)"},
      {"measurement": "IC50", "setting": "[2]", "value": "> 20 µM (inactive)"},
      {"measurement": "IC50", "setting": "[3]", "value": "> 20 µM (inactive)"},
      {"measurement": "IC50", "setting": "HEK293", "value": "> 20 µM (inactive)"}
    ]},
    {"smiles": "COc1cc2c(cc1OC)C(COc1ccc(F)cc1)NCC2", "note": "(configuration not stated)", "values": [
      {"measurement": "AC50", "setting": "[4]", "value": "25.2 µM (active)"}
    ]},
    {"smiles": "Cc1cc(=O)oc2cc(OCC(=O)N/N=C/c3cc([N+](=O)[O-])ccc3O)ccc12", "values": [
      {"measurement": "IC50", "setting": "[5]", "value": "4.25 µM (active)"},
      {"measurement": "IC50", "setting": "[6]", "value": "> 56.8 µM (not active)"},
      {"measurement": "IC50", "setting": "[7]", "value": "> 50 µM (inactive)"},
      {"measurement": "IC50", "setting": "[8]", "value": "2.6 µM (active)"},
      {"measurement": "IC50", "setting": "[9]", "value": "24 µM (active)"},
      {"measurement": "IC50", "setting": "Albumin", "value": "> 94.1 µM (inactive)"}
    ]}
  ]
}
